Test results published in article PMC2726284, “Electron Crystallography Reveals Plasticity within the Drug Binding Site of the Small Multidrug Transporter EmrE” (Journal of Molecular Biology, 2008).

Columns and labels:
EmrE [1] = molecular target: T1, EmrE (Escherichia coli, UniProt P23895); assay: [3H]TPP+ radioligand competition; exchange in 2-D crystals and cryo-EM projection map; format: binding
T1 construct: 6xHis-tagged EmrE, purified, detergent (DDM)-solubilized

EmrE [2] = molecular target: T1, EmrE; assay: [3H]TPP+ radioligand competition; cryo-EM projection structure of 2-D co-crystals at […] Å; format: binding
EmrE [3] = molecular target: T1, EmrE; assay: [3H]TPP+ radioligand binding to solubilized EmrE and 2-D crystals; conditions: cited from earlier work

T1 sequence (P23895 whole entry): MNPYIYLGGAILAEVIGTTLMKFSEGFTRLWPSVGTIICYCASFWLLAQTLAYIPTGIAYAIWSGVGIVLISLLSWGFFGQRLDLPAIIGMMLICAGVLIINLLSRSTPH

| SMILES | Ki (EmrE [1]) | also measured |
| --- | --- | --- |
| Cc1cc(N)c2ccccc2[n+]1CCCCCCCCCC[n+]1c(C)cc(N)c2ccccc21 [DQ^2+, dequalinium] | 83 ± 9 nM |  |
| CC[n+]1c(-c2ccccc2)c2cc(N)ccc2c2ccc(N)cc21 [Eth^+, ethidium] |  | Ki (EmrE [2]): 1000 ± 900 nM |
| CC[N+](C)(CC)CCC[n+]1c(-c2ccccc2)c2cc(N)ccc2c2ccc(N)cc21 [PP^2+, propidium] | 19 ± 4 nM |  |
| c1ccc([P+](c2ccccc2)(c2ccccc2)c2ccccc2)cc1 [TPP^+, tetraphenylphosphonium] |  | Kd (EmrE [3]): 2.4 nM |
